One may read the melting point as the temperature of the solid-liquid transition.

Where a name gives a salt, the structure may show the parent alone.

As to `O=C([C@@H]1C[C@H]1c1ccccc1)N1CC[C@H](CNc2ncccn2)[C@H](F)C1` (as salt: hydrochloride) [Example 5, (3S,4R)-N-[(3-cis-fluoro-1-{[(1R,2R)-2-phenylcyclopropyl]carbonyl}piperidin-4-yl)methyl]pyrimidin-2-amine], the melting point lay within 127 to 128 °C.

Consider `Cc1ccc(COC(=O)N2CC[C@@H](CNc3nncs3)[C@@H](F)C2)cc1` (stereo in doubt) (as salt: hydrochloride) [Example 6, (−)-cis-4-methylbenzyl 3-fluoro-4-[(1,3,4-thiadiazol-2-ylamino)methyl]piperidine-1-carboxylate], for which the melting point lay in the range of 115 to 117 °C.

In turn, `Cc1ccc(COC(=O)N2CC[C@@H](CNc3nncs3)[C@H](F)C2)cc1` [Example 7, (+)-trans-4-methylbenzyl 3-fluoro-4-[(1,3,4-thiadiazol-2-ylamino)methyl]piperidine-1-carboxylate] displayed a melting point of 93 to 95 °C.

The values are drawn from patent US7592360B2, “3-fluoro-piperidines as NMDA/NR2B antagonists” (Merck & Co., Inc., priority 2003, dated 2009).
